Data published in patent publication US6586592B2, “Bis-arylsulfones” (Pharmacia & Upjohn Company, priority 2000, dated 2003).
Counter-ions that a name gives are not always drawn.

Columns and labels:
[1] = target: T1, cloned human 5-HT6 receptor (Homo sapiens, UniProt P50406); assay: 5-HT6 receptor binding assay ([3H]-LSD radioligand, SPA beads); conditions: membranes of Hela cells containing cloned human 5-HT6 receptor, IC50 converted to Ki by Cheng-Prusoff
T1 construct: membrane preparation
Protocol: 5-HT6 Receport Binding Assay
Growth of Cells and Membrane Preparation
Harvested intact cells are washed once in cold phosphate-buffered saline. The cells are pelleted and resuspended in 100 ml of cold 50 mM Tris, 5 mM EDTA and 5 mM EGTA, pH 7.4. Homogenization is with a Vir Tishear generator, 4 cycles for 30 seconds each at setting 50. The homogenized cells are centrifuged at 700 RPM (1000×g) for 10 minutes and the supernatant is removed. […] The rehomogenized cells are then centrifuged at 700 RPM (1000×g) for 10 minutes and the supernatant is removed. […] The membrane pellet is resupended in 50-8-ml of assay buffer containing HEPES 20 mM, MgCl2 10 mM, NaCl 150 mM, EDTA 1 mM, pH 7.4 and stored frozen in aliqouts at −70° C.
5-HT6 Receptor Binding Assay
The radioligand binding assay used [^3H]-lysergic acid diethylamide (LSD). The assay is carried out in Wallac 96-well sample plates by the addition of 11 μl of the test sample at the appropriate dilution (the assay employed 11 serial concentrations of samples run in duplicate), 11 μl of radioligand, and 178 μl of a washed mixture of WGA-coated SPA beads and membranes in binding buffer. The plates are shaken for about 5 minutes and then incubated at room temperature for 1 hour. The plates are then loaded into counting cassettes and counted in a Wallac MicroBeta Trilux scintillation counter.
Binding Constant (Ki) Determination
Eleven serial dilutions of test compounds are distributed to assay plates using the PE/Cetus Pro/Pette pipetter. These dilutions were, followed by radioligand and the bead-membrane mixture prepared as described above. The specifically bound cpm obtained are fit to a one-site binding model using GraphPad Prism ver. 2.0.

T1 sequence (P50406 whole entry): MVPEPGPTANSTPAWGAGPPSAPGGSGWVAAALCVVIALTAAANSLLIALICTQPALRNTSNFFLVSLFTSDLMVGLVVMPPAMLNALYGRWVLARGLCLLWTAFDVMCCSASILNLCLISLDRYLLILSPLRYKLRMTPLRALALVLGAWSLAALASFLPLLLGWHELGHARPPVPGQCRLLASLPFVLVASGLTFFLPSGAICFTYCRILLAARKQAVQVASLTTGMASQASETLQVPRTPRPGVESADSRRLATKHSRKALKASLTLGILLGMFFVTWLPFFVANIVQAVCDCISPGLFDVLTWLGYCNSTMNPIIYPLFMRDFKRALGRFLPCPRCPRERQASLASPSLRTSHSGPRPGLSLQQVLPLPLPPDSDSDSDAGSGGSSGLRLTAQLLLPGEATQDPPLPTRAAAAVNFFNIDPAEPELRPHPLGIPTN

**Q.** With `CNc1cc(N2CCCNCC2)ccc1S(=O)(=O)c1cccc(F)c1.Cl` as the compound, how does the melting point read?
**A.** 153 to 154 °C

**Q.** For `Nc1cc(N2CCNCC2)ccc1S(=O)(=O)c1ccccc1` (as salt: salt) [Example 1, 2-(phenylsulfonyl)-5-(1-piperazinyl)phenylamine], which melting point is on record?
**A.** 165 to 166 °C

**Q.** With `Nc1cc(N2CCNCC2)ccc1S(=O)(=O)c1ccccc1` [Example 1, 2-(phenylsulfonyl)-5-(1-piperazinyl)phenylamine] as the compound, how does the Ki [1] read?
**A.** 2.6 nM

**Q.** For `Cl.Nc1cc(N2CCCNCC2)ccc1S(=O)(=O)c1cccc(F)c1` [Example 2, 5-(1,4-diazepan-1-yl)-2-[(3-fluorophenyl)sulfonyl]phenylamine], which melting point is on record?
**A.** 106 to 108 °C

**Q.** With `Nc1cc(N2CCNCC2)ccc1S(=O)(=O)c1ccc(F)cc1` [Example 3, 2-[(4-fluorophenyl)sulfonyl]-5-(1-piperazinyl) Phenylamine] as the compound, how does the Ki [1] read?
**A.** 31 nM

**Q.** Which melting point does the source give for `CN1CCN(c2ccc(S(=O)(=O)c3ccc(F)cc3)c(N)c2)CC1.Cl` [Example 4, 2-[(4-fluorophenyl)sulfonyl]-5-(4-methyl-1-piperazinyl) Phenylamine] here?
**A.** 85 to 89 °C

**Q.** What about the Ki [1] of the same compound?
**A.** 32 nM

**Q.** With `Cc1ccc(S(=O)(=O)c2ccc(N3CCNCC3)cc2N)cc1` [Example 5, 2-[(4-methylphenyl)sulfonyl]-5-(1-piperazinyl) Phenylamine] as the compound, how does the melting point read?
**A.** 102 to 106 °C

**Q.** And the Ki [1]?
**A.** 23 nM

**Q.** What does the source list for `Cc1ccc(S(=O)(=O)c2ccc(N3CCN(C)CC3)cc2N)cc1` [Example 6, 2-[(4-methylphenyl)sulfonyl]-5-(4-methyl-1-piperazinyl) Phenylamine]?
**A.** melting point: 148 to 151 °C; Ki [1]: 68 nM

**Q.** For `CN1CCN(c2ccc(S(=O)(=O)c3ccccc3)c(N)c2)CC1.Cl` [Example 7, 5-(4-methyl-1-piperazinyl)-2-(phenylsulfonyl) Phenylamine], which melting point is on record?
**A.** 90 to 93 °C

**Q.** What about the Ki [1] of the same compound?
**A.** 3.6 nM

**Q.** With `CN1CCN(c2ccc(S(=O)(=O)c3cccc(F)c3)c(N)c2)CC1.Cl` [Example 8, 2-[(3-fluorophenyl)sulfonyl]-5-(4-methyl-1-piperazinyl) Phenylamine] as the compound, how does the melting point read?
**A.** 89 to 92 °C

**Q.** And the Ki [1]?
**A.** 5.2 nM

**Q.** With `Nc1cc(N2CCCNCC2)ccc1S(=O)(=O)c1ccc(F)c(F)c1` [Example 9, 5-(1,4-diazepan-1-yl)-2-[(3,4-difluorophenyl)sulfonyl]phenylamine] as the compound, how does the Ki [1] read?
**A.** 79 nM

**Q.** With `Nc1cc(N2CCCNCC2)ccc1S(=O)(=O)c1ccccc1` [Example 10, 5-(1,4-diazepan-1-yl)-2-(phenylsulfonyl) Phenylamine] as the compound, how does the Ki [1] read?
**A.** 11 nM

**Q.** For `Nc1cc(N2CCCNCC2)ccc1S(=O)(=O)c1cc(F)cc(F)c1` [Example 11, 5-(1,4-diazepan-1-yl)-2-[(3,5-difluorophenyl)sulfonyl]phenylamine], which Ki [1] is on record?
**A.** 11 nM

**Q.** With `CCNc1cc(N2CCNCC2)ccc1S(=O)(=O)c1ccccc1.Cl` [Example 13, N-ethyl-2-(phenylsulfonyl)-5-(1-piperazinyl) Phenylamine] as the compound, how does the melting point read?
**A.** 121 to 123 °C
